Measurements published in patent US10227324B2 (Shanghai Haiyan Pharmaceutical Technology Co., Ltd., priority 2014, dated 2019).
Where two headings read alike, the source gives them in different places.

How the values were obtained:
Experiment in all cases: Determination of PI3K kinase activity (ADP Transcreener, fluorescence polarization)
Assay type in all cases: biochemical
PI3K-γ kinase (p110γ) = molecular target: T1, PI3K-γ kinase (p110γ) (Homo sapiens, UniProt P48736); conditions: Table 1; ATP 10 μM; read-out: PI3K-γ/nM (IC50 of inhibitory activity against PI3K kinase)
T1 construct: purchased Invitrogen PV4786
In short: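 Each 25 μL reaction held PI3K enzyme (p110α/p85α 3 ng, p110β/p85α 60 ng, p110δ/p85α 90 ng, or p110γ 100 ng), 10 μM ATP, 30 μM PIP2:PS and 2% DMSO, incubated 1 h at 25 °C. Compounds were tested in duplicate across a 3-fold series, 0.00046–1 μM as prepared. ADP was detected by Transcreener fluorescence polarization, quantified against an ADP/ATP standard curve, and IC50 fitted.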

[1] = molecular target: T2, PI3K-δ kinase (p110δ/p85α) (Homo sapiens, UniProt O00329); conditions: Table 1; ATP 10 μM; read-out: PI3K-δ/nM (IC50 of inhibitory activity against PI3K kinase)
T2 construct: purchased Millipore 14-604M

[2] = molecular target: T3, PI3K-β kinase (p110β/p85α) (Homo sapiens, UniProt P42338); conditions: Table 1; ATP 10 μM; read-out: PI3K-β/nM (IC50 of inhibitory activity against PI3K kinase)
T3 construct: purchased Millipore 14-603

[3] = molecular target: T4, PI3K-α kinase (p110α/p85α) (Homo sapiens, UniProt P42336); conditions: for IC50: ATP 10 μM; for increase of inhibitory activity against PI3K-α kinase compared with BKM-120: relative to BKM-120
T4 construct: purchased Invitrogen PV4788

[4] = Table 1, read-out: PI3K-α/nM (IC50 of inhibitory activity against PI3K kinase)
[5] = Table 2, read-out: PI3K-α/nM (IC50 of inhibitory activity against PI3K-α kinase)

T4 sequence (P42336 whole entry): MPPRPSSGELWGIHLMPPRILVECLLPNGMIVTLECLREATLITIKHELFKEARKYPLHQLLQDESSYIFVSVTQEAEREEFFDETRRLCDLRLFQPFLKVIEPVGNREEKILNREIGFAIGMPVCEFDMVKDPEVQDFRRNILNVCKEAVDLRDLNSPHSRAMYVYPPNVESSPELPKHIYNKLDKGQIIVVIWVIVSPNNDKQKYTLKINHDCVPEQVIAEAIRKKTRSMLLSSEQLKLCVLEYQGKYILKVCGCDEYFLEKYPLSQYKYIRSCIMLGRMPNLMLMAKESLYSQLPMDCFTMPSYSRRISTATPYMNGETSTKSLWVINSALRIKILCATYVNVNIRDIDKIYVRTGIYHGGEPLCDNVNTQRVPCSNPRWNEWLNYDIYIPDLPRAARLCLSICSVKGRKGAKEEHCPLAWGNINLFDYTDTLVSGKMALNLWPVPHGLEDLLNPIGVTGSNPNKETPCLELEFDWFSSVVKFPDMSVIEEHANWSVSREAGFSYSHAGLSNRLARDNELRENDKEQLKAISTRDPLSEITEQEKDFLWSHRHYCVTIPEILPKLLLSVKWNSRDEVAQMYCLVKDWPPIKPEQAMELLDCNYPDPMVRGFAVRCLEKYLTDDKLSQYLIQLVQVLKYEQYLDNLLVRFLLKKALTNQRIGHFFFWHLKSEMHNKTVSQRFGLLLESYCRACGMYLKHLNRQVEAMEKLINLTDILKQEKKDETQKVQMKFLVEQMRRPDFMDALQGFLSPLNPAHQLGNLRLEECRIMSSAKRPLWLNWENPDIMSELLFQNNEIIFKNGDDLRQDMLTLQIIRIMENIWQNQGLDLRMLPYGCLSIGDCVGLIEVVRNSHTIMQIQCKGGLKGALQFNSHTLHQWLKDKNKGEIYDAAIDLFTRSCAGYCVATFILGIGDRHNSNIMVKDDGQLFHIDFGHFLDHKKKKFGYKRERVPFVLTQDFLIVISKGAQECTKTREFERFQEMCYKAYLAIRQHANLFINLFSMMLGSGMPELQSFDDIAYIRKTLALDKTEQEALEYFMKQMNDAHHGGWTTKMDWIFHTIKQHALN
T4 sequence (P27986 whole entry partner): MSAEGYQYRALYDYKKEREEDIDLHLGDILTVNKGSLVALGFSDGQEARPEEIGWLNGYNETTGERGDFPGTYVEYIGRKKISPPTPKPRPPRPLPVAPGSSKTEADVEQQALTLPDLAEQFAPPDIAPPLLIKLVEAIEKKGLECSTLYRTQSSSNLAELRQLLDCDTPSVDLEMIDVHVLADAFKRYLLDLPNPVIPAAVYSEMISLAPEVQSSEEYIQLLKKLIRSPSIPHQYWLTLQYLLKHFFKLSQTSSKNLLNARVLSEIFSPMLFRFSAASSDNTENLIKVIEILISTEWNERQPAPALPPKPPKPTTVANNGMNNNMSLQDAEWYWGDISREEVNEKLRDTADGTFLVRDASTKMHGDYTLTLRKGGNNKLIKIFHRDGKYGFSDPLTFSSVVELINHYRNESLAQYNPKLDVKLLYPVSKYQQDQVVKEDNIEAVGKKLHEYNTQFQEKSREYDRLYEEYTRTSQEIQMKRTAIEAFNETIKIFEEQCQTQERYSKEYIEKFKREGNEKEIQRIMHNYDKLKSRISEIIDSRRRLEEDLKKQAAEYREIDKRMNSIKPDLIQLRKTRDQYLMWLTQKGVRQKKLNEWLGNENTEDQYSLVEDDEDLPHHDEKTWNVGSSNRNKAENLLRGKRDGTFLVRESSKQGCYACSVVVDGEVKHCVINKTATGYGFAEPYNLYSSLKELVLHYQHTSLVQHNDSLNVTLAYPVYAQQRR
T1 sequence (P48736 whole entry): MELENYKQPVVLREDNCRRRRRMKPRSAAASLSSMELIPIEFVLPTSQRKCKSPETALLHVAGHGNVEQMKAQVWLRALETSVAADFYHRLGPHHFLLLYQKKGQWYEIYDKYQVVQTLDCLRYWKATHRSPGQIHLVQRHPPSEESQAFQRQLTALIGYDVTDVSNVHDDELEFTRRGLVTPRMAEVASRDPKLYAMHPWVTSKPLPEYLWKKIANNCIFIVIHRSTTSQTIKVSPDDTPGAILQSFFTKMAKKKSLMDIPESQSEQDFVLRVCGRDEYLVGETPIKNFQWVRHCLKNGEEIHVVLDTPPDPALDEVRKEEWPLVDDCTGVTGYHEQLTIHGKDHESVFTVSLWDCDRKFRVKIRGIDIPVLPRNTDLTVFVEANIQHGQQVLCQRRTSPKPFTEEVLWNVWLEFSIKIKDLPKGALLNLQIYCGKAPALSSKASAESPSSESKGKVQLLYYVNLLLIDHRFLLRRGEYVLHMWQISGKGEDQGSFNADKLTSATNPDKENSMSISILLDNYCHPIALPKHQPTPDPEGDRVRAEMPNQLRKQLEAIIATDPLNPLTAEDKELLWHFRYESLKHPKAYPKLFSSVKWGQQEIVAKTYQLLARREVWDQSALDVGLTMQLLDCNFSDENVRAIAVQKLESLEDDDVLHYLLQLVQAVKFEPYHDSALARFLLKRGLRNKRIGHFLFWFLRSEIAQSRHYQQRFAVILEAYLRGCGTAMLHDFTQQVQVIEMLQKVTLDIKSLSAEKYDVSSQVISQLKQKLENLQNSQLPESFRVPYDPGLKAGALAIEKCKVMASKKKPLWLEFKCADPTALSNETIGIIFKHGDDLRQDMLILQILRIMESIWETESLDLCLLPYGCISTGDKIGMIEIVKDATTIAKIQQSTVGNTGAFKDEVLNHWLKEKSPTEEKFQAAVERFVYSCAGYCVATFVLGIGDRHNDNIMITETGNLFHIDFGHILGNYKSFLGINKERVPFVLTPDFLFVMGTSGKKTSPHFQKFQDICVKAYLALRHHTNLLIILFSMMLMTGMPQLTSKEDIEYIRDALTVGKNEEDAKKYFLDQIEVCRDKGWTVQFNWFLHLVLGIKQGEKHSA
T3 sequence (P42338 whole entry): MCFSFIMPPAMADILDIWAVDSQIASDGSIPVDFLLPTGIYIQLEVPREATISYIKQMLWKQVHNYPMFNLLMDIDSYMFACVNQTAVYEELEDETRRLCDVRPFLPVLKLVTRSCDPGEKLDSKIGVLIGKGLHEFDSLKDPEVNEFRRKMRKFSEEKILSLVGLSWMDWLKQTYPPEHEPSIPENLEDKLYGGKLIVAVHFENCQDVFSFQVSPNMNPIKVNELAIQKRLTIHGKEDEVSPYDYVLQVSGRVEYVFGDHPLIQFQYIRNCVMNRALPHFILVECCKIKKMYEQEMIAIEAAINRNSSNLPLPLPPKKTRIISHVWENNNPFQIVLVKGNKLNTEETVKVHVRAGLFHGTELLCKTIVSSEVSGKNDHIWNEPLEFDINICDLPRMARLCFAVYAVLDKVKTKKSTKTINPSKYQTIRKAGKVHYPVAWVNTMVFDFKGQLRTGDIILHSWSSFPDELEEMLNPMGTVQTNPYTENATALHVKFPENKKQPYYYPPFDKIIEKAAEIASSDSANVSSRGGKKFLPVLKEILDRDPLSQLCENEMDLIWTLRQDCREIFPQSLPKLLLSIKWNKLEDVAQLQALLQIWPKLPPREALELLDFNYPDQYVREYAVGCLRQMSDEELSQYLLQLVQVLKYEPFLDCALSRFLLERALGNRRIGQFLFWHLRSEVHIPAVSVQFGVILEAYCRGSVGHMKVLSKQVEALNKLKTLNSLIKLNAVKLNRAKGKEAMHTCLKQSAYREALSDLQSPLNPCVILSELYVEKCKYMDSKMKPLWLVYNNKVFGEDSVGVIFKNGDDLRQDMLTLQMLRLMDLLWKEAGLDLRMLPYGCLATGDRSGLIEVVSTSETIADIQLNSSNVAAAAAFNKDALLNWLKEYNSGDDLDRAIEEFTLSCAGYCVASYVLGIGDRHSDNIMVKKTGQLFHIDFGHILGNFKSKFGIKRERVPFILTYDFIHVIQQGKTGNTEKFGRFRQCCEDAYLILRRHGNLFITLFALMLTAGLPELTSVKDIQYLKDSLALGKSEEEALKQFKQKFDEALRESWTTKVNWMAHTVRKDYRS
T3 sequence (P27986 whole entry partner): as the sequence (P27986 whole entry partner) above
T2 sequence (O00329 whole entry): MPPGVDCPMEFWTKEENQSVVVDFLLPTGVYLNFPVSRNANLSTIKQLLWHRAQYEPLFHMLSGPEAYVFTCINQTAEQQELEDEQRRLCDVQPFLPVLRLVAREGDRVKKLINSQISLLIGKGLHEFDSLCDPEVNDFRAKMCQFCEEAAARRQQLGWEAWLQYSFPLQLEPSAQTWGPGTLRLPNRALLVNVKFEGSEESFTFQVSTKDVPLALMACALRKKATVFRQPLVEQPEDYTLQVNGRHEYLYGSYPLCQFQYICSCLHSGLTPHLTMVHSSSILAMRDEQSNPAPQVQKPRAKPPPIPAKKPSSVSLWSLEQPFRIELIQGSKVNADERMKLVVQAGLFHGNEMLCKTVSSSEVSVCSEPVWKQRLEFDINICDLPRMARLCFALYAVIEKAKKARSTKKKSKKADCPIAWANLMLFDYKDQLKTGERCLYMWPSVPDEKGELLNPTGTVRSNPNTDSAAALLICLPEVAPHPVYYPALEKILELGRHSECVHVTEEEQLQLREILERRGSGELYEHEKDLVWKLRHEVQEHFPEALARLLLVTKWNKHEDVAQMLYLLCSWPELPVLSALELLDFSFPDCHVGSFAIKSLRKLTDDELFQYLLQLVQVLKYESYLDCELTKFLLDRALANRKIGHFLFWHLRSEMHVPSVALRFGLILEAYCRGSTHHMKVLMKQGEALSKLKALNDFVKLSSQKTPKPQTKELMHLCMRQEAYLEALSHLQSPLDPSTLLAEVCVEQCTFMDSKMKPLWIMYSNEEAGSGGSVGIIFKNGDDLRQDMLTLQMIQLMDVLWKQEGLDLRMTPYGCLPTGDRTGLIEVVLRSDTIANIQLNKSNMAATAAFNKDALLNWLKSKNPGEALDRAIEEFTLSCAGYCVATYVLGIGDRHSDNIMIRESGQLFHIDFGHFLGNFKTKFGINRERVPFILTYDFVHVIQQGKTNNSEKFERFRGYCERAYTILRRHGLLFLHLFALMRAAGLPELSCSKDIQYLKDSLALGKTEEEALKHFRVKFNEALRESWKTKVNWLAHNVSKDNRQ
T2 sequence (P27986 whole entry partner): as the sequence (P27986 whole entry partner) above

COC(C)(C)c1cc(-c2cnc(N)cc2Cl)nc(N2CCOC[C@@H]2C)n1 [Compound S-75]
IC50 (PI3K-γ kinase (p110γ)): 654 nM
IC50 [1]: 810 nM
IC50 [2]: 943 nM
IC50 [3, 4]: 23 nM
IC50 [3, 5]: 23 nM

CC(C)S(=O)(=O)C1(c2cc(-c3cnc(N)cc3C(F)(F)F)nc(N3CCOC[C@@H]3C)n2)CCC1 [Compound S-13, (S)-5-(6-(1-(isopropylsulfonyl)cyclobutyl)-2-(3-methylmorpholino)pyrimidin-4-yl)-4-(trifluoromethyl)pyridin-2-amine]
IC50 (PI3K-γ kinase (p110γ)): > 3000 nM
IC50 [1]: 226 nM
IC50 [2]: 1670 nM
IC50 [3, 4]: 67 nM

Nc1cc(F)c(-c2cc(C3(S(=O)(=O)C4CC4)CC3)nc(N3CCOCC3)n2)cn1 [Compound S-88]
IC50 (PI3K-γ kinase (p110γ)): 98 nM
IC50 [1]: 209 nM
IC50 [2]: 521 nM
IC50 [3, 4]: 48 nM
IC50 [3, 5]: 48 nM

CS(=O)(=O)C1(c2cc(N3CCOCC3)nc(-c3cnc(N)cc3C(F)(F)F)n2)CC1 [reference compound]
IC50 (PI3K-γ kinase (p110γ)): > 3000 nM
IC50 [1]: 2580 nM
IC50 [2]: 2160 nM
IC50 [3, 4]: 90 nM

Nc1cc(C(F)(F)F)c(-c2cc(C3(S(=O)(=O)c4ccccc4)CCC3)nc(N3CCOCC3)n2)cn1 [Compound S-20]
IC50 (PI3K-γ kinase (p110γ)): 1160 nM
IC50 [1]: 42 nM
IC50 [2]: 676 nM
IC50 [3, 4]: 24 nM

C[C@H]1COCCN1c1nc(-c2cnc(N)nc2)cc(C2(S(C)(=O)=O)CCC2)n1 [Compound S-33]
IC50 (PI3K-γ kinase (p110γ)): 112 nM
IC50 [1]: 58 nM
IC50 [2]: 115 nM
IC50 [3, 4]: 12 nM

COC(C)(C)c1cc(-c2cnc(N)cc2C(F)(F)F)nc(N2CCOCC2)n1 [Compound S-71, 5-(6-(2-methoxypropan-2-yl)-2-morpholinopyrimidin-4-yl)-4-(trifluoromethyl) pyridin-2-amine]
IC50 (PI3K-γ kinase (p110γ)): 1030 nM
IC50 [2]: 177 nM
IC50 [3, 4]: 9 nM

COC(C)(C)c1cc(-c2cnc(N)cc2Cl)nc(N2CCOCC2)n1 [Compound S-76]
IC50 (PI3K-γ kinase (p110γ)): 228 nM
IC50 [1]: 207 nM
IC50 [2]: 316 nM
IC50 [3, 4]: 53 nM
IC50 [3, 5]: 53 nM

C[C@H]1COCCN1c1nc(-c2cnc(N)cc2Cl)cc(C2(S(C)(=O)=O)CCC2)n1 [Compound S-31]
IC50 (PI3K-γ kinase (p110γ)): 148 nM
IC50 [1]: 103 nM
IC50 [2]: 171 nM
IC50 [3, 4]: 12 nM

CS(=O)(=O)C1(c2cc(-c3cnc(N)nc3C(F)(F)F)nc(N3CCOCC3)n2)CC1 [Compound S-46]
IC50 (PI3K-γ kinase (p110γ)): 96 nM
IC50 [1]: 13 nM
IC50 [2]: 8 nM
IC50 [3, 4]: 6 nM
increase of inhibitory activity against PI3K-α kinase compared with BKM-120 [3]: about 10 times

CC(C)S(=O)(=O)C1(c2cc(-c3cnc(N)cc3C(F)(F)F)nc(N3CCOCC3)n2)CCC1 [Compound S-19]
IC50 (PI3K-γ kinase (p110γ)): > 3000 nM
IC50 [1]: 493 nM
IC50 [2]: 512 nM
IC50 [3, 4]: 80 nM

CS(=O)(=O)C1(c2cc(-c3cnc(N)cc3Cl)nc(N3CCOCC3)n2)CC1 [Compound S-37, 4-chloro-5-(6-(1-(methylsulfonyl)cyclopropyl)-2-morpholinopyrimidin-4-yl)pyridin-2-amine]
IC50 (PI3K-γ kinase (p110γ)): 114 nM
IC50 [1]: 84 nM
IC50 [2]: 28 nM
IC50 [3, 4]: 4 nM
IC50 [3, 5]: 4 nM
increase of inhibitory activity against PI3K-α kinase compared with BKM-120 [3]: about 10 times

CCS(=O)(=O)C1(c2cc(-c3cnc(N)cc3C(F)(F)F)nc(N3CCOCC3)n2)CCC1 [Compound S-49, 5-(6-(1-(ethylsulfonyl)cyclobutyl)-2-morpholinopyrimidin-4-yl)-4-(trifluoromethyl)pyridin-2-amine]
IC50 (PI3K-γ kinase (p110γ)): 2020 nM
IC50 [1]: 85 nM
IC50 [2]: 327 nM
IC50 [3, 4]: 17 nM

C[C@@H]1COCCN1c1nc(-c2cnc(N)cc2Cl)cc(C2(S(C)(=O)=O)CC2)n1 [Compound S-68]
IC50 (PI3K-γ kinase (p110γ)): 184 nM
IC50 [1]: 143 nM
IC50 [2]: 92 nM
IC50 [3, 4]: 8 nM
IC50 [3, 5]: 8 nM

CC(C)(c1cc(-c2cnc(N)cc2Cl)nc(N2CCOCC2)n1)S(C)(=O)=O [Compound S-38, 4-chloro-5-(6-(2-(methylsulfonyl)prop-2-yl)-2-morpholinopyrimidin-4-yl)pyridin-2-amine]
IC50 (PI3K-γ kinase (p110γ)): 369 nM
IC50 [1]: 212 nM
IC50 [2]: 113 nM
IC50 [3, 4]: 17 nM

C[C@H]1COCCN1c1nc(-c2cnc(N)cc2C(F)(F)F)cc(C2(S(C)(=O)=O)CCC2)n1 [Compound S-9]
IC50 (PI3K-γ kinase (p110γ)): 155 nM
IC50 [1]: 63 nM
IC50 [2]: 105 nM
IC50 [3, 4]: 5 nM
increase of inhibitory activity against PI3K-α kinase compared with BKM-120 [3]: about 10 times

CS(=O)(=O)C(F)(F)c1cc(-c2cnc(N)cc2Cl)nc(N2CCOCC2)n1 [Compound S-54, 4-chloro-5-(6-(difluoro(methylsulfonyl)methyl)-2-morpholinopyrimidin-4-yl)pyridin-2-amine]
IC50 (PI3K-γ kinase (p110γ)): 199 nM
IC50 [1]: 145 nM
IC50 [2]: 92 nM
IC50 [3, 4]: 12 nM

C[C@H]1COCCN1c1nc(-c2ccc(N)nc2)cc(C2(S(C)(=O)=O)CCC2)n1 [Compound S-32]
IC50 (PI3K-γ kinase (p110γ)): 923 nM
IC50 [1]: 161 nM
IC50 [2]: 977 nM
IC50 [3, 4]: 76 nM

CC(C)(c1cc(-c2cnc(N)cc2F)nc(N2CCOCC2)n1)S(C)(=O)=O [Compound S-81]
IC50 (PI3K-γ kinase (p110γ)): 181 nM
IC50 [1]: 178 nM
IC50 [2]: 812 nM
IC50 [3, 4]: 43 nM

C[C@H]1COCCN1c1nc(-c2cnc(N)nc2C(F)(F)F)cc(C2(S(C)(=O)=O)CCC2)n1 [Compound S-30]
IC50 (PI3K-γ kinase (p110γ)): 141 nM
IC50 [1]: 12 nM
IC50 [2]: 18 nM
IC50 [3, 4]: 12 nM

CS(=O)(=O)C1(c2cc(-c3cnc(N)cc3F)nc(N3CCOCC3)n2)CC1 [Compound S-82]
IC50 (PI3K-γ kinase (p110γ)): 116 nM
IC50 [1]: 132 nM
IC50 [2]: 86 nM
IC50 [3, 4]: 39 nM

C[C@H]1COCCN1c1nc(-c2cnc(N)cc2F)cc(C2(S(C)(=O)=O)CC2)n1 [Compound S-83]
IC50 (PI3K-γ kinase (p110γ)): 204 nM
IC50 [3, 4]: 20 nM

Nc1cc(C(F)(F)F)c(-c2cc(C3(S(=O)(=O)c4ccccc4F)CC3)nc(N3CCOCC3)n2)cn1 [Compound S-58]
IC50 (PI3K-γ kinase (p110γ)): 121 nM
IC50 [1]: 33 nM
IC50 [2]: 72 nM
IC50 [3, 4]: 4 nM

C[C@H]1COCCN1c1nc(-c2cnc(N)cc2F)cc(C(C)(C)S(C)(=O)=O)n1 [Compound S-84]
IC50 (PI3K-γ kinase (p110γ)): 219 nM
IC50 [1]: 18 nM
IC50 [2]: 812 nM
IC50 [3, 4]: 21 nM

CC(C)S(=O)(=O)C1(c2cc(-c3cnc(N)cc3F)nc(N3CCOCC3)n2)CC1 [Compound S-86]
IC50 (PI3K-γ kinase (p110γ)): 192 nM
IC50 [1]: 397 nM
IC50 [2]: 763 nM
IC50 [3, 4]: 26 nM
IC50 [3, 5]: 26 nM

CC(C)(c1cc(-c2cnc(N)nc2C(F)(F)F)nc(N2CCOCC2)n1)S(C)(=O)=O [Compound S-45]
IC50 (PI3K-γ kinase (p110γ)): 78 nM
IC50 [1]: 17 nM
IC50 [2]: 28 nM
IC50 [3, 4]: 35 nM

C[C@@H]1COCCN1c1nc(-c2cnc(N)cc2Cl)cc(C(C)(C)S(C)(=O)=O)n1 [Compound S-67]
IC50 (PI3K-γ kinase (p110γ)): 113 nM
IC50 [1]: 59 nM
IC50 [2]: 208 nM
IC50 [3, 4]: 6 nM
IC50 [3, 5]: 6 nM

CCS(=O)(=O)C1(c2cc(-c3cnc(N)cc3F)nc(N3CCOCC3)n2)CC1 [Compound S-85]
IC50 (PI3K-γ kinase (p110γ)): 244 nM
IC50 [1]: 228 nM
IC50 [2]: 484 nM
IC50 [3, 4]: 29 nM
IC50 [3, 5]: 29 nM

CS(=O)(=O)C1(c2cc(-c3cnc(N)cc3C(F)(F)F)nc(N3CCOCC3)n2)CCCC1 [Compound S-10]
IC50 (PI3K-γ kinase (p110γ)): 592 nM
IC50 [1]: 367 nM
IC50 [2]: 1140 nM
IC50 [3, 4]: 42 nM

Nc1cc(Cl)c(-c2cc(C3(S(=O)(=O)c4ccccc4F)CC3)nc(N3CCOCC3)n2)cn1 [Compound S-66]
IC50 (PI3K-γ kinase (p110γ)): 160 nM
IC50 [1]: 46 nM
IC50 [2]: 73 nM
IC50 [3, 4]: 9 nM
IC50 [3, 5]: 9 nM

CCS(=O)(=O)C1(c2cc(-c3cnc(N)cc3C(F)(F)F)nc(N3CCOC[C@@H]3C)n2)CCC1 [Compound S-23]
IC50 (PI3K-γ kinase (p110γ)): 525 nM
IC50 [1]: 62 nM
IC50 [2]: 620 nM
IC50 [3, 4]: 16 nM

CC(C)S(=O)(=O)C1(c2cc(-c3cnc(N)cc3C(F)(F)F)nc(N3CCOCC3)n2)CC1 [Compound S-18]
IC50 (PI3K-γ kinase (p110γ)): 957 nM
IC50 [1]: 246 nM
IC50 [2]: 548 nM

C[C@H]1COCCN1c1nc(-c2cnc(N)cc2C(F)(F)F)cc(C(C)(C)S(C)(=O)=O)n1 [Compound S-41]
IC50 (PI3K-γ kinase (p110γ)): 331 nM
IC50 [1]: 79 nM
IC50 [2]: 82 nM
IC50 [3, 4]: 6 nM

CS(=O)(=O)C1(c2cc(-c3cnc(N)cc3C(F)(F)F)nc(N3CCOCC3)n2)CCC1 [Compound S-4]
IC50 (PI3K-γ kinase (p110γ)): 354 nM
IC50 [1]: 184 nM
IC50 [2]: 527 nM
IC50 [3, 4]: 12 nM
